Consider three compounds from US20250313862A1, “INHIBITION OF GENOTOXIC STRESS TO IMPROVE T CELL ENGINEERING” (GENENTECH, INC., priority 2022, published 2025).

In assay [1] the test system is human primary CD8+ T cells. Briefly: T cell expansion fold of final cell product, 15-day T cell engineering process. The following applies: for cell expansion of final T cell product: day 15, average. The class given is cell-based. How it is done: (§1) Peripheral blood mononuclear cells (PBMCs) were isolated from human cryopreserved leukopak using Ficoll gradient centrifugation ([…], 25 min). All samples were obtained from healthy donors genotyped with HLA A*02:01 MHC class I complex. Then CD8+ T cells were isolated using the Miltenyi AutoMACS cell separator according to the manufacturer's protocol. Isolated CD8+ T cells were then mixed with Miltenyi T cell TransACT reagent (1:100) (Catalog #130-111-160), 25 ng/mL IL-7 (Catalog #130-095-367), and 50 ng/mL IL-15 (Catalog #130-095-760) in Fuji Prime-XV medium (IrvineScientific Catalog #91154) for 48 h for activation.
(§2) Cells were electroporated with the 4D-Nucleofector System (Lonza) according to the manufacturer's protocol. After activation and inhibitor treatment, 10×10^6 (or 10 million) CD8+ T cells were washed and resuspended with Lonza P3 primary cell nucleofector solution (Catalog #V4XP-3024) and then mixed with pre-mixed RNP and DNA plasmid before transferring to Lonza 100-uL cuvette. After electroporation, 400 ul of FUJI Prime-XV medium was added to the cuvette and incubated for 15 min before seeding cells in culture flask. Pulse code used in this manuscript is EH115 for all circumstances.
(§3) All inhibitors were purchased from invivogen. Unless stated otherwise, cells were cultured with Fuji Prime-XV medium with 25 ng/ml IL-7 and 50 ng/ml IL-15 (Complete medium). After electroporation, T cells were carefully transferred to 24-well gREX (Wilsonwolf, Catalog: 80192M) at 1-2 million cells/cm^2 seeding density. 8 ml of complete medium were added per well and 50% of the medium was exchanged 6 days later. Cells were incubated at 37° C. and 5% CO2. The NucleoCounter NC-200 automated cell counter with the Via2-Casette were used in this study for cell counting and viability analysis.
(§4) Two days post activation, CD8+ T cells were washed and resuspended with FUJI Prime-XV complete medium containing inhibitors at the indicated concentrations for 6 h. After treatment, cells were washed and resuspended in Lonza P3 buffer prior to electroporation. Post transfection, T cells were cultured with FUJI Prime-XV complete medium without inhibitor.

The test system of assay [2] is human primary CD8+ T cells. Put plainly: T cell viability 48 h post transfection (NucleoCounter NC-200). Format: cell-based. The following applies: for culture viability improvement compared to the untreated control group (CTR): 6 h pretreatment prior to transfection, 48 h-post transfection, on average (FIG. 6A). How it is done:
as §1, §2, §3, §4

For assay [3], the system named is human primary CD8+ T cells. Put plainly: Total edited cell (TEC) number in final drug product. Format: cell-based. To be noted: for TEC number: seeding 2 million cells, day 15, on average (FIG. 6C).
From the text: The total edited cell number (TECs) in the final drug product is arguably the most important metric for the adoptive cell transfer (ACT) and this, among a few other conditions, is considered one of the most important criteria for cell therapy purpose since it is expected to translate to the therapeutic impact in the clinic. Using the total cell number of the final cell product on day 15 multiplied by the percentage of knock-in, we get the TECs that are representative of our T cell engineering and culture output. With a starting seeding density of 2 million cells and without inhibitor treatment, as shown for the control conditions (CTR), the TEC numbers were approximately 5.24 million on average (FIG. 6C). However, when T cells were pre-treated with the indicated inhibitors, a significant increase in the output of TECs in all donors were observed (FIGS. 4C, 4F, 4I, FIGS. 5C, 5F), which was consistent with the cell expansion data.
as §2, §3
(§5) Dextramer antibodies for knock-in analysis were purchased from Immudex (Catalog: WB3469-PE, WT1) and used following manufacturer's protocol. Surface staining, CFSE staining, 7-AAD/annexin V staining, and intracellular staining were performed as previously described. Samples were analyzed using the BD FACSLyric flow cytometer (BD Biosciences) and FlowJo v10 software. For proliferation and cell killing assay, data were corrected by a negative control or target cell-only control.
as §4

Assay [4] concerns human primary CD8+ T cells. Briefly: T cell phenotype of final T cell product by flow cytometry (TSCM, TCM, TEM, TE). The class given is cell-based. The following applies: pre-treatment prior to transfection; day 15; different donors; hydrochloride. How it is done:
as §5, §4

Assay [5] concerns TBK1. The following applies: previous report [9]; cited from earlier work.
For assay [6], the system named is human primary CD8+ T cells. Briefly: CFSE proliferation analysis, 72 h co-culture with WT1 peptide. Format: cell-based. To be noted: day 15 cells, WT1 peptide 72 h. How it is done:
We next investigated proliferation of T cell after treatment with BX795. The final T cell product obtained from BX795 pre-treated or untreated groups were labeled with CFSE far-red, and co-cultured with WT1 peptide at the indicated concentrations for 72 h. […] T cells treated with higher concentration of WT1 peptide achieved high (˜60%) proliferation rates, implying the strong and antigen specific proliferation of the final T cell product. Finally, we compared T cells isolated from BX795 pre-treated as well as untreated control cultures in a target cell killing assay. Target cells T2 (T) were labeled with CFSE-far red, and then pulsed with 20 uM WT1 peptide before co-incubation with our final T cell product (E) at a ratio dependent manner. […] Of note, compared with the CTLs raised from conventional vaccine strategies, our T cells achieved high killing efficiency with much lower E:T ratio [19, 20], outlining the potential advantage of antigen-specific tumor cell killing of our TCR engineered T cells.
Dextramer antibodies for knock-in analysis were purchased from Immudex (Catalog: WB3469-PE, WT1) and used following manufacturer's protocol. Surface staining, CFSE staining, 7-AAD/annexin V staining, and intracellular staining were performed as previously described. Samples were analyzed using the BD FACSLyric flow cytometer (BD Biosciences) and FlowJo v10 software. […]

Assay [7] deals with human primary CD8+ T cells. Put plainly: Knock-in/knock-out efficiency by flow cytometry (MHC-peptide dextramer and TCR staining). Format: cell-based. How it is done:
as §2, §5, §4
On the technique in general: A flow cytometer gives signals particle by particle.

The next assay has as its system IRF3. Briefly: Western blot analysis of IRF3 phosphorylation post transfection. The following applies: pre-treatment at both medium and high concentrations (FIG. 8A). The class given is cell-based, human. How it is done: (§6) T cell pellets were collected, washed and stored as frozen pellets in −80° C. until use. Cell pellet processing, western blot experiments and data analysis were performed as previously described (Tang, J B C, 2020).
as §4
(A western blot detects proteins with antibodies after separation by electrophoresis.)

The subject of assay [8] is human primary CD8+ T cells. Briefly: T cell activation and cytokine expression after 24 h WT1 peptide pulse (flow cytometry). To be noted: day 15 cells pulsed 24 h with WT1 peptide. The class given is cell-based. How it is done: The cGAS-STING pathway is crucial in detecting and neutralizing genotoxic stress. It is a main component of innate immune system that can trigger inflammation in response to cytosolic DNA detection. […] Harvested T cells from inhibitor treated and control groups were pulsed for 24 h with indicated concentrations of a specific peptide (WT1), which binds to the engineered TCR. […] Another major concern is the exhaustion of the engineered T cell cultures. To measure levels of T cell exhaustion, the expression of exhaustion markers, such as Tim3 and PD-1, was evaluated.
as §5

Assay [9] deals with type 1 interferons (IFNa, IFNB) and proinflammatory cytokine (IL-6). Briefly: Cytokine expression by qPCR 6 h post transfection. The class given is cell-based, human. How it is done:
(§7) RNeasy Mini Kit (Cat. #74106) was purchased from Qiagen. TaqMan RNA-to-CT 1-Step Kit (Cat. #4392938) and Taqman primer-probe assays with reporter dye FAM and MGB quenchers were purchased from Thermo Fisher (assay information listed in Table 4). After RNA isolation, 2 ng RNA was mixed with Taqman primer-probe mix, TaqMan RNA-to-CT 1-Step master mix, and RT enzyme mix in a 10 uL qPCR system according to the manufacturer's protocol. Reaction readings were measured using QuantStudio 6 Flex machine and data was analyzed using QuantStudio Real-Time PCR software v1.2. PCR cycling conditions were 50° C. for 30 min, 95° C. for 10 min, 40× cycles of 95° C. for 15 s, 60° C. for 1 min. All data points were collected in triplicates, using RNA18S as internal control (sample ID: #Hs03928990_g1).
as §4

The test system of assay [10] is TBK1. Briefly: Western blot analysis of TBK1 phosphorylation post transfection. Format: cell-based, human. The following applies: post BX795 pre-treatment (FIG. 8A). How it is done: as §6, §4
In a further assay the test system is cGAS-STING pathway. Put plainly: cGAS-STING pathway activation in T cells (western blot and qPCR). To be noted: pretreatment prior to transfection (FIG. 8A); hydrochloride. The class given is cell-based, human. How it is done:
as §6, §7, §4

Setting [11] is: BX795-M (mid dosage 2.5 uM), day 15.

Entries after “also recorded” stand apart in the source; their conditions may differ. Structures can show the parent of a compound that is named as a salt.

Regarding `CC(C)c1ccc2oc3nc(N)c(C(=O)O)cc3c(=O)c2c1` [Aml, 2-amino-5-oxo-7-propan-2-ylchromeno[2,3-b]pyridine-3-carboxylic acid], in [1] (25 uM pre-treatment), the “cell expansion of final T cell product” value worked out at 14.5 fold. For the same compound, the “culture viability improvement compared to the untreated control group (CTR)” value in assay [2] (25 uM) is on record as “about 2 fold”. In [3] (25 uM pre-treatment), the “average increase in TECs compared to the control group” value (“average increase in TECs” for short) is on record as 267.0% and the TEC number amounted to 14.7 million.
For the compound `O=C(NCCCNc1nc(Nc2cccc(NC(=O)N3CCCC3)c2)ncc1I)c1cccs1` [BX795, N-[3-[[5-iodo-4-[[3-[(2-thienylcarbonyl)amino]propyl]amino]-2-pyrimidinyl]amino]phenyl]-1- Pyrrolidinecarboxamide hydrochloride], the “cell expansion of final T cell product” value in assay [1] (5 uM pre-treatment) is reported as 20.3 fold. Moreover, the “T cell expansion rate” value in [1] (day 15, same donor as FIG. 8A (FIG. 8C)) is given as “increased T cell expansion rate”. Also, the “inhibitor performance by electroporation pulse code” value in [1] (pulse code EH115 vs other pulse codes) is “performs better in EH115 groups”. The “T cell phenotype of final T cell product vs untreated control” value in assay [4] is listed as “no impact on the final T cell product phenotype”. Besides, the “enhancement in TBK1 phosphorylation” value in the assay on TBK1 [5] is on record as 2 fold. Moreover, the “T cell proliferation in response to antigen specific stimulation vs untreated” value in assay [6] is “comparable”. In addition, the “exogenous TCR expression (knock-in) over the culture process vs control group” value in assay [7] (2.5 uM pre-treated, day 4 to day 15 (FIG. 14B, 14C), hydrochloride) is reported as “increases exogenous TCR expression; also recorded: enhances cell editing efficiency (knock-in)”. In addition, the “knock-out efficiency in final cell product” value in assay [7] (BX795-H (high dosage 5 uM), day 15) worked out at 83.5%. Moreover, in [7] (setting [11]), the “knock-in ratio in final cell product” value was 61% and the “knock-out efficiency in final cell product” value was found to be 86.7%. In addition, in assay [7] (day 15, same donor as FIG. 8A), the KI/KO ratio result was “equal or better KI/KO ratio”. Moreover, in the assay with IRF3, the “phosphorylation of IRF3 post transfection” value is given as “attenuated phosphorylation of IRF3”. Further, the “culture viability improvement compared to the untreated control group (CTR)” value in [2] (5 uM) is reported as “about 2 fold”. In assay [2] (48 h post transfection, same donor as FIG. 8A (FIG. 8B)), the “% viability” value was “higher % viability”. For the same compound, the “effectiveness in improving culture viability and growth among tested inhibitors” value in assay [2] (at 2.5 uM and 5 uM) is recorded as “most effective”. In [3] (2.5 uM pre-treatment), the “average increase in TECs” value was 303.4% and the TEC number was found to be 21.1 million. The TEC numbers entry in assay [3] (day 15, same donor as FIG. 8A) is recorded as “improved TEC numbers”. In addition, the “improvement in TEC compared to the control group” value in [3] (mid or high concentrations (2.5 uM and 5 um), statistically significant) is “more than 3 fold”. Besides, in assay [8], the “activation profile (CD137, IFNg, TNFa, Granzyme B expression) vs untreated control” value is “comparable activation profile”. In addition, the “levels of type 1 interferons (IFNa, IFNB)” value in [9] (BX795 removed prior to transfection) is on record as “did not show a significant decrease”. Besides, the “downstream cytokine expression (IFNa, IFNB, IL-6)” value in assay [9] (pre-treatment, 6 h post transfection (FIG. 8F)) was “reduced”. Further, the TBK1 phosphorylation entry in the assay on TBK1 [10] was “not attenuated and was actually enhanced”. For the same compound, the cGAS/STING pathway activation result in the assay on cGAS-STING pathway is “considerable reduction in cGAS/STING pathway activation; also recorded: attenuates T cell cGAS-STING pathway”.
In the case of `O=C(NCCCNc1nc(Nc2cccc(CN3CCOCC3)c2)ncc1C1CC1)C1CCC1` [MRT, N-[3-[[5-cyclopropyl-2-[3-(morpholin-4-ylmethyl)anilino]pyrimidin-4-yl]amino]propyl] cyclobutanecarboxamide], in assay [1] (5 uM pre-treatment), the “cell expansion of final T cell product” value is 17.2 fold. Also, the “culture viability improvement compared to the untreated control group (CTR)” value in [2] (2.5 uM) was “about 2 fold”. For the same compound, in assay [3] (5 uM pre-treatment), the “average increase in TECs” value is given as 180% and the TEC number stood at 17.4 million.
